{"source": "patent US8299209B2", "about": "“Pharmaceutical composition comprising cyclic somatostatin analogues” (Novartis AG, priority 2003, dated 2012)", "key": {"hsst2": {"molecular_target": "T1, hsst2 (Homo sapiens, UniProt P30874)", "T1 construct": "expressed in transfected cells", "T1 sequence (P30874 whole entry)": "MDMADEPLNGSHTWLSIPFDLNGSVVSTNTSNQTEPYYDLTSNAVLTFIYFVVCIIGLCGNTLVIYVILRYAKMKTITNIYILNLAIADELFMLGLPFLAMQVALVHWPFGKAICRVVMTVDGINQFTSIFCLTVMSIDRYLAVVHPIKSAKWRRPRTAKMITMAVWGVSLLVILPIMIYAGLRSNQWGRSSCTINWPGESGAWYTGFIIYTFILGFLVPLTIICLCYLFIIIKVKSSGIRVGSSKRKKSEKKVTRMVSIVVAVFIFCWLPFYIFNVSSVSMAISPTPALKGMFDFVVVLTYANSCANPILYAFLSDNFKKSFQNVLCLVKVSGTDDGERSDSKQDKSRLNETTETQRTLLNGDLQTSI", "assay": "competition binding assay on membranes of cells expressing hsst2", "experimental": "(§1) The experiments are carried out in triplicate."}, "hsst3": {"molecular_target": "T2, hsst3 (Homo sapiens, UniProt P32745)", "T2 construct": "expressed in transfected cells", "T2 sequence (P32745 whole entry)": "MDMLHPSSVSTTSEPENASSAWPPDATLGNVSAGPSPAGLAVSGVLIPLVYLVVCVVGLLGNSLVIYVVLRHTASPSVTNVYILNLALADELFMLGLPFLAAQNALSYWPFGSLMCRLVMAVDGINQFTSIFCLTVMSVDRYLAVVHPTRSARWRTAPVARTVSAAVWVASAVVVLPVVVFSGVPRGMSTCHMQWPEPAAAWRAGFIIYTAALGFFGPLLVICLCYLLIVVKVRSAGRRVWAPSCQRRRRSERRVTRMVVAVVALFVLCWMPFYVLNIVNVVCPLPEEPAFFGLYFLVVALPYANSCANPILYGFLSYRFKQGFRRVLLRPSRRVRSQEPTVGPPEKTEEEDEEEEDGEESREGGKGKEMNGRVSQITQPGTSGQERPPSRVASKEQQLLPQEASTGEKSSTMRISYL", "assay": "competition binding assay on membranes of cells expressing hsst3", "experimental": "as §1"}, "growth hormone release": {"system": "growth hormone release", "assay": "inhibition of growth hormone (GH) release in rats", "type": "in vivo, rat", "conditions": "s.c. to anaesthetized rats", "experimental": "Compound B is administered s.c. to anaesthetized rats. Blood is collected after decapitation 1 h after administration of the compound. The duration of action is estimated on the basis of the inhibition of basal GH secretion 6 h after drug treatment. Hormone levels are measured by RIA 1 h and 6 h after treatment. The ID50-value for the inhibition of the hormone secretion is determined graphically (log-probit) for each experiment and the resulting values are averaged logarithmically."}, "hsst1": {"molecular_target": "hsst1 (Homo sapiens, UniProt P30872)", "sequence (P30872 whole entry)": "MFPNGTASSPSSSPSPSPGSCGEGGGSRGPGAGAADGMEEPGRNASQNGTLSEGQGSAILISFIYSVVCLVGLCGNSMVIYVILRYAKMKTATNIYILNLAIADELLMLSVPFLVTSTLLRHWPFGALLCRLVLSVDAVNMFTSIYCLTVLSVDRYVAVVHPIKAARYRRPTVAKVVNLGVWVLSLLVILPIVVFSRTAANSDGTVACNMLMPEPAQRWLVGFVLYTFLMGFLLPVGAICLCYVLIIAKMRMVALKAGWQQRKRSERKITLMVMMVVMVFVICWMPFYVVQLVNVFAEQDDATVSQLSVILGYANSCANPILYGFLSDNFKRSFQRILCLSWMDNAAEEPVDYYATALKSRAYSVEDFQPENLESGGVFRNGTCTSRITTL", "procedure": "The binding assays may be carried out as disclosed hereunder using membranes from cell lines expressing selectively and stably hsst1, hsst2, hsst3, hsst4 or hsst5, e.g. CHO or COS cells.\nMembranes prepared from hsst selective cell lines, e.g. CHO or COS cells stably expressing hsst1 or hsst2 or hsst3 or hsst4 or hsst5 are incubated in triplicate in a total volume of 300 μl at 22° C. for 30 min with increasing concentrations of [^125I-Tyr^11]-SRIF-14 in 10 mmol/l Hepes buffer (pH 7.6) containing 0.5% BSA. The incubation is terminated by rapid filtration and the filters are counted in a counter. Specific binding is total binding minus non-specific binding in the presence of 1 μmol/l somatostatin-14. The experiments are carried out in triplicate. The affinity constant (KD) and number of binding sites are calculated using appropriate statistics and graphical programs."}, "hsst5": {"molecular_target": "T3, hsst5 (Homo sapiens, UniProt P35346)", "T3 construct": "expressed in transfected cells", "T3 sequence (P35346 whole entry)": "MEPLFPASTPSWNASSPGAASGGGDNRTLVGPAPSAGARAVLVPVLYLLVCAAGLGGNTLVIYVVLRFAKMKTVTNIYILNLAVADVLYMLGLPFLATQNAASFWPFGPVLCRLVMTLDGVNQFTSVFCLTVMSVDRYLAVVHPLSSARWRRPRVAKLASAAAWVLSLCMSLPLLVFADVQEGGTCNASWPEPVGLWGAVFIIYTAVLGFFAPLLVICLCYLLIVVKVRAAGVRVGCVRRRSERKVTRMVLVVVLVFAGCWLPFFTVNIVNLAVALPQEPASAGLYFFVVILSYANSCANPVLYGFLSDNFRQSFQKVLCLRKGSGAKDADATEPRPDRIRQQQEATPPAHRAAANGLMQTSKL", "assay": "competition binding assay on membranes of cells expressing hsst5", "conditions": "IC50 value in the nMolar range", "experimental": "as §1"}, "cultured pituitary cells": {"system": "cultured pituitary cells", "assay": "inhibition of GH release in vitro from cultured pituitary cells", "type": "cell-based", "conditions": "rat anterior pituitary cells, three hours, 3×10^−10 M growth hormone releasing factor", "experimental": "For example, anterior pituitary glands from adult male rats are cut into small pieces and dispersed using 0.1% trypsin in 20 mM HEPES buffer. The dispersed cells are cultured for four days in MEM (Gibco) supplemented with 5% fetal calf serum, 5% horse serum, 1 mM NaHCO3, 2.5 nM dexamethasone, 2.5 mg/ml insulin and 20 U/ml Pen/Strep. On the day of the experiment the attached cells are washed two times with Krebs-Ringer medium buffered with 20 mM HEPES and supplemented with 5 mM glucose and 0.2% BSA. […] The amount of growth hormone released into the medium is measured by RIA."}, "[1]": {"assay": "storage stability of the composition", "type": "physicochemical", "conditions": "in the composition of the invention", "experimental": "For example, less than 2.5% of degradation products were found after 4 weeks storage at 60° C. For example, if stored with light protection at 2° C. to 8° C., the compositions of the invention are stable over 24 months."}}, "note": "Numbered stars: 1 amine (or outer) side, 2 acyl side, 3 side chain; on linkers, the order of the positions; unused ones are H or OH. Square brackets hold non-standard residues; d marks the D form. Side chains are listed from the residue outwards. Peptide text beside a SMILES is read from it. * marks the point of attachment. ξ: configuration not given here. Ethylenediamine = C(CN[*:2])N[*:1]; dPhg = N[C@@H](C(=O)O)c1ccccc1; ξHyp = O=C(O)C1CC(O)CN1; CO = O=C([*:1])[*:2]; Bn = c1ccc(C*)cc1"}
{"compound": "NCCCC[C@@H]1NC(=O)[C@@H](Cc2c[nH]c3ccccc23)NC(=O)[C@@H](c2ccccc2)NC(=O)C2CC(OC(=O)NCCN)CN2C(=O)[C@H](Cc2ccccc2)NC(=O)[C@H](Cc2ccc(OCc3ccccc3)cc2)NC1=O", "note": "(stereo partly drawn) [Compound B, cyclo[{4-(NH2—C2H4—NH—CO—O—)Pro}-DPhg-DTrp-Lys-Tyr(4-Bzl)-Phe]] (cyclo([ξHyp]([CO-Ethylenediamine])[dPhg][dW]KY(Bn)F))", "values": [{"measurement": "binding affinity towards hsst2 (in words)", "setting": "hsst2", "value": "no significant binding affinity"}, {"measurement": "binding affinity towards hsst3 (in words)", "setting": "hsst3", "value": "low binding affinity"}, {"measurement": "inhibition of growth hormone release in vivo", "setting": "growth hormone release", "value": "inhibits growth hormone release"}, {"measurement": "binding affinity towards hsst1 (in words)", "setting": "hsst1", "value": "no significant binding affinity"}, {"measurement": "binding affinity towards hsst5 (in words)", "setting": "hsst5", "value": "good binding affinity"}, {"measurement": "inhibition of GH release in vitro", "setting": "cultured pituitary cells", "value": "GH-release inhibiting activity"}]}
{"compound": "cyclo[{4-(NH2—C2H4—NH—CO—O—)Pro}-Phg-DTrp-Lys-Tyr(4-Bzl)-Phe] [diaspartate salt of Compound A]", "values": [{"measurement": "stability (in words)", "setting": "[1]", "value": "Particularly good stability"}]}
